Laboratory results reported in patent US20260035387A1 (BIOGEN MA INC., priority 2022, published 2026).

System: mutant Huntington (HTT) protein
Experiment: HTT Mutant HTRF iPSC assay (mHTT protein lowering)
Format: cell-based
Conditions: human iPSC derived from a HTT patient with a poly-Q49 mutation

SMILES	IC50 [nM]
COc1cc(NC(=O)c2nc3ccc(N4CCC5(CCCN5C)C4)nc3s2)cn2cc(C)nc12 (centres unmarked) [Compound 95, N-(8-methoxy-2-methylimidazo[1,2-a]pyridin-6-yl)-5-(1-methyl-1,7-diazaspiro[4.4]nonan-7-yl)thiazolo[5,4-b]pyridine-2-carboxamide]	< 100
CCN1CCN(c2ccc3nc(C(=O)Nc4cn5cc(C)nc5c(OC)n4)sc3n2)CC1 [Compound 96, 5-(4-ethylpiperazin-1-yl)-N-(8-methoxy-2-methylimidazo[1,2-a]pyrazin-6-yl)thiazolo[5,4-b]pyridine-2-carboxamide]	< 100
Cc1cn2cc(NC(=O)c3nc4ccc(N5CCC6(CCCN6C)C5)nc4s3)cc(F)c2n1 (centres unmarked) [Compound 98, N-(8-fluoro-2-methylimidazo[1,2-a]pyridin-6-yl)-5-(1-methyl-1,7-diazaspiro[4.4]nonan-7-yl)thiazolo[5,4-b]pyridine-2-carboxamide]	< 100
Cc1cn2cc(NC(=O)c3nc4ccc(N5CCC(N6CCC6)C5)nc4s3)cc(F)c2n1 (centres unmarked) [Compound 99, 5-(3-(azetidin-1-yl)pyrrolidin-1-yl)-N-(8-fluoro-2-methylimidazo[1,2-a]pyridin-6-yl)thiazolo[5,4-b]pyridine-2-carboxamide]	< 100
COc1nc(NC(=O)c2nc3ccc(N4CCC(N(C)C)C4)nc3s2)cn2cc(C)nc12 (centres unmarked) [Compound 100, 5-(3-(dimethylamino)pyrrolidin-1-yl)-N-(8-methoxy-2-methylimidazo[1,2-a]pyrazin-6-yl)thiazolo[5,4-b]pyridine-2-carboxamide]	< 100
Cc1cn2cc(NC(=O)c3nc4ccc(N5CCNCC5)nc4s3)cc(F)c2n1 [Compound 102, N-(8-fluoro-2-methylimidazo[1,2-a]pyridin-6-yl)-5-(piperazin-1-yl)thiazolo[5,4-b]pyridine-2-carboxamide]	< 100
Cc1cn2cc(NC(=O)c3nc4ccc(NC5CC(C)(C)NC(C)(C)C5)nc4s3)cc(F)c2n1 [Compound 103, N-(8-fluoro-2-methylimidazo[1,2-a]pyridin-6-yl)-5-((2,2,6,6-tetramethylpiperidin-4-yl)amino)thiazolo[5,4-b]pyridine-2-carboxamide]	< 100
Cc1cn2cc(NC(=O)c3nc4ccc(N5C[C@H]6CN(C)C[C@H]65)nc4s3)cc(F)c2n1 [Compound 104, N-(8-fluoro-2-methylimidazo[1,2-a]pyridin-6-yl)-5-((1R,5S)-3-methyl-3,6-diazabicyclo[3.2.0]heptan-6-yl)thiazolo[5,4-b]pyridine-2-carboxamide]	< 100
Cc1cn2cc(NC(=O)c3nc4ccc(N5C[C@@H]6CCN[C@@H]6C5)nc4s3)cc(F)c2n1 [Compound 105, N-(8-fluoro-2-methylimidazo[1,2-a]pyridin-6-yl)-5-((3aS,6aS)-hexahydropyrrolo[3,4-b]pyrrol-5(1H)-yl)thiazolo[5,4-b]pyridine-2-carboxamide]	< 100
Cc1cn2cc(NC(=O)c3nc4ccc(N5C[C@@H]6CN(C)C[C@@H]65)nc4s3)cc(F)c2n1 [Compound 106, N-(8-fluoro-2-methylimidazo[1,2-a]pyridin-6-yl)-5-((1S,5R)-3-methyl-3,6-diazabicyclo[3.2.0]heptan-6-yl)thiazolo[5,4-b]pyridine-2-carboxamide]	100 to 1000
CN[C@H]1CCN(c2ccc3nc(C(=O)Nc4cc(F)c5nc(C)cn5c4)sc3n2)C1 [Compound 107, (S)-N-(8-fluoro-2-methylimidazo[1,2-a]pyridin-6-yl)-5-(3-(methylamino)pyrrolidin-1-yl)thiazolo[5,4-b]pyridine-2-carboxamide]	< 100
Cc1cn2cc(NC(=O)c3nc4ccc(N5C[C@H]6CCN[C@H]6C5)nc4s3)cc(F)c2n1 [Compound 108, N-(8-fluoro-2-methylimidazo[1,2-a]pyridin-6-yl)-5-((3aR,6aR)-hexahydropyrrolo[3,4-b]pyrrol-5(1H)-yl)thiazolo[5,4-b]pyridine-2-carboxamide]	< 100
COc1nc(NC(=O)c2nc3ccc(N4CCC5(CCCN5C)C4)nc3s2)cn2cc(C)nc12 (centres unmarked) [Compound 109, N-(8-methoxy-2-methylimidazo[1,2-a]pyrazin-6-yl)-5-(1-methyl-1,7-diazaspiro[4.4]nonan-7-yl)thiazolo[5,4-b]pyridine-2-carboxamide]	< 100
Cc1cn2cc(NC(=O)c3nc4ccc(N5C[C@@H]6CCN[C@@H]6C5)nc4s3)cc(F)c2n1 [Compound 110, N-(8-fluoro-2-methylimidazo[1,2-a]pyridin-6-yl)-5-((3aS,6aS)-hexahydropyrrolo[3,4-b]pyrrol-5(1H)-yl)thiazolo[5,4-b]pyridine-2-carboxamide]	< 100
Cc1cn2cc(NC(=O)c3nc4ccc(N5CCC6(CCN6)C5)nc4s3)cc(F)c2n1 (centres unmarked) [Compound 112, N-(8-fluoro-2-methylimidazo[1,2-a]pyridin-6-yl)-5-(1,6-diazaspiro[3.4]octan-6-yl)thiazolo[5,4-b]pyridine-2-carboxamide]	< 100
Cc1cn2cc(NC(=O)c3nc4ccc(N(C)C5CC(C)(C)NC(C)(C)C5)nc4s3)cc(F)c2n1 [Compound 113, N-(8-fluoro-2-methylimidazo[1,2-a]pyridin-6-yl)-5-(methyl(2,2,6,6-tetramethylpiperidin-4-yl)amino)thiazolo[5,4-b]pyridine-2-carboxamide]	< 100

SMILES	IC50 [nM]
COc1c(NC(=O)c2nc3ccc(N4CCC5(CN(C)C5)C4)nc3s2)cn2cc(C)nc2c1F [Compound 114, N-(8-fluoro-7-methoxy-2-methylimidazo[1,2-a]pyridin-6-yl)-5-(2-methyl-2,6-diazaspiro[3.4]octan-6-yl)thiazolo[5,4-b]pyridine-2-carboxamide]	< 100
COc1cn2nc(C)cc2cc1NC(=O)c1nc2ccc(N3CCC4(CCCN4C)C3)nc2s1 (centres unmarked) [Compound 116, N-(6-methoxy-2-methylpyrazolo[1,5-a]pyridin-5-yl)-5-(1-methyl-1,7-diazaspiro[4.4]nonan-7-yl)thiazolo[5,4-b]pyridine-2-carboxamide]	100 to 1000
COc1nc(NC(=O)c2nc3ccc(N4CC[C@@H](N(C)C)C4)nc3s2)cn2cc(C)nc12 [Compound 117, (R)-5-(3-(dimethylamino)pyrrolidin-1-yl)-N-(8-methoxy-2-methylimidazo[1,2-a]pyrazin-6-yl)thiazolo[5,4-b]pyridine-2-carboxamide]	< 100
CCN1CCN(c2ccc3nc(C(=O)Nc4cc5cn(C)nc5cc4OC)sc3n2)CC1 [Compound 118, 5-(4-ethylpiperazin-1-yl)-N-(6-methoxy-2-methyl-2H-indazol-5-yl)thiazolo[5,4-b]pyridine-2-carboxamide]	100 to 1000
CCN1CCN(c2ccc3nc(C(=O)Nc4cn5cc(C)nc5c(C)n4)sc3n2)CC1 [Compound 119, N-(2,8-dimethylimidazo[1,2-a]pyrazin-6-yl)-5-(4-ethylpiperazin-1-yl)thiazolo[5,4-b]pyridine-2-carboxamide]	100 to 1000
COc1cc2nn(C)cc2cc1NC(=O)c1nc2ccc(N3CC[C@@H](N4CCC4)C3)nc2s1 [Compound 120, (R)-5-(3-(azetidin-1-yl)pyrrolidin-1-yl)-N-(6-methoxy-2-methyl-2H-indazol-5-yl)thiazolo[5,4-b]pyridine-2-carboxamide]	100 to 1000
COc1cc2nn(C)cc2cc1NC(=O)c1nc2ccc(N3CC[C@H](N4CCC4)C3)nc2s1 [Compound 121, (S)-5-(3-(azetidin-1-yl)pyrrolidin-1-yl)-N-(6-methoxy-2-methyl-2H-indazol-5-yl)thiazolo[5,4-b]pyridine-2-carboxamide]	100 to 1000
Cc1cn2cc(NC(=O)c3nc4ccc(N5CCC(N6CCC6)C5)nc4s3)nc(C)c2n1 (centres unmarked) [Compound 122, 5-(3-(azetidin-1-yl)pyrrolidin-1-yl)-N-(2,8-dimethylimidazo[1,2-a]pyrazin-6-yl)thiazolo[5,4-b]pyridine-2-carboxamide]	1000 to 9000
Cc1cn2cc(NC(=O)c3nc4ccc(C5CCNCC5)nc4s3)cc(F)c2n1 [Compound 129, N-(8-fluoro-2-methylimidazo[1,2-a]pyridin-6-yl)-5-(piperidin-4-yl)thiazolo[5,4-b]pyridine-2-carboxamide]	< 100
Cc1cn2cc(NC(=O)c3nc4ccc(C5=CC6CCC(C5)N6)nc4s3)cc(F)c2n1 (centres unmarked) [Compound 130, 5-(8-azabicyclo[3.2.1]oct-2-en-3-yl)-N-(8-fluoro-2-methylimidazo[1,2-a]pyridin-6-yl)thiazolo[5,4-b]pyridine-2-carboxamide]	< 100
Cc1cn2cc(NC(=O)c3nc4ccc(C5CCN(C)C5)nc4s3)cc(F)c2n1 (centres unmarked) [Compound 131, N-(8-fluoro-2-methylimidazo[1,2-a]pyridin-6-yl)-5-(1-methylpyrrolidin-3-yl)thiazolo[5,4-b]pyridine-2-carboxamide]	< 100
Cc1cn2cc(NC(=O)c3nc4ccc(C5=CC(C)(C)NC(C)(C)C5)nc4s3)cc(F)c2n1 [Compound 132, N-(8-fluoro-2-methylimidazo[1,2-a]pyridin-6-yl)-5-(2,2,6,6-tetramethyl-1,2,3,6-tetrahydropyridin-4-yl)thiazolo[5,4-b]pyridine-2-carboxamide]	< 100
Cc1cn2cc(NC(=O)c3nc4ccc(C5=CCCN(C)C5)nc4s3)cc(F)c2n1 [Compound 133, N-(8-fluoro-2-methylimidazo[1,2-a]pyridin-6-yl)-5-(1-methyl-1,2,5,6-tetrahydropyridin-3-yl)thiazolo[5,4-b]pyridine-2-carboxamide]	< 100
Cc1cn2cc(NC(=O)c3nc4ccc(C5CCCN(C)C5)nc4s3)cc(F)c2n1 (centres unmarked) [Compound 134, N-(8-fluoro-2-methylimidazo[1,2-a]pyridin-6-yl)-5-(1-methylpiperidin-3-yl)thiazolo[5,4-b]pyridine-2-carboxamide]	< 100
COc1cc2nn(C)cc2cc1NC(=O)c1nc2ccc(C3CCN(C)CC3)nc2s1 [Compound 135, N-(6-methoxy-2-methyl-2H-indazol-5-yl)-5-(1-methylpiperidin-4-yl)thiazolo[5,4-b]pyridine-2-carboxamide]	100 to 1000
Cc1cn2cc(NC(=O)c3nc4ccc(C5CCN(C)CC5)nc4s3)nc(C)c2n1 [Compound 136, N-(2,8-dimethylimidazo[1,2-a]pyrazin-6-yl)-5-(1-methylpiperidin-4-yl)thiazolo[5,4-b]pyridine-2-carboxamide]	1000 to 9000
